The record followed here is publication PMC3059353 (Biochemistry, 2011).

The target in this assay is T1, adenine deaminase (ADE) (Escherichia coli, UniProt P31441).
T1 sequence (P31441 1-588): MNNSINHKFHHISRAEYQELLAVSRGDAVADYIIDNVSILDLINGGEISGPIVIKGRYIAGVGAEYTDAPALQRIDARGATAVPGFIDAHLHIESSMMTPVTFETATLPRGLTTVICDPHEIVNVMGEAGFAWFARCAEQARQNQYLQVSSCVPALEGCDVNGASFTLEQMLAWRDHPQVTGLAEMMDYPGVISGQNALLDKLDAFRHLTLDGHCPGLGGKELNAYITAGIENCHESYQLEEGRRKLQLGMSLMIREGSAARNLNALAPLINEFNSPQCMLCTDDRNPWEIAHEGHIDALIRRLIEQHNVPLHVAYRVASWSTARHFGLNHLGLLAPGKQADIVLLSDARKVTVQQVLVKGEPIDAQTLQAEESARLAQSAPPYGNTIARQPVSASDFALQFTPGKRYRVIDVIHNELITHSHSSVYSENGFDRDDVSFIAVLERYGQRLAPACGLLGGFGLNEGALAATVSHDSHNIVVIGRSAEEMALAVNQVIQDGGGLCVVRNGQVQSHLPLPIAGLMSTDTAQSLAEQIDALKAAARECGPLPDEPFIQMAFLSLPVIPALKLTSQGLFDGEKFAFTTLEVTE
Put plainly: GDH-coupled adenine deamination assay after […] h incubation with Mn/Mn-ADE. It counts as biochemical.

Structures are written as SMILES.

Regarding `Clc1ncnc2[nH]cnc12` [6-chloropurine], the Ki came out at 130 ± 15 nM.
